Measurements published in PMC10376254, “Phytochemical and Bioactivity Studies on Hedera helix L. (Ivy) Flower Pollen and Ivy Bee Pollen” (Antioxidants, 2023).
Entries after “also recorded” stand apart in the source; their conditions may differ. Marks after values point to notes of the source that are not given here.

How the values were obtained:
xanthine oxidase (XO) [1] = assay: HPTLC-xanthine oxidase inhibitory activity (bioautography); format: biochemical; conditions: for HPTLC-XO zone detection (XO inhibitors as white/yellow zones on purple background): 8 µg on plate for compounds, samples 50 mg/mL, 2 and 5 µL, documented 0–120 min
Procedure: HPTLC analyses was immersed into a derivatization chamber with a mixture of phosphate buffer solution (pH 7.6) containing EDTA (1 mM), NBT (1 mM) and XO (0.1 U/mL), and incubated at 37 °C for 30 min in the dark. After drying in the air, the HPTLC plate was dipped into a phosphate buffer solution containing xanthine (1.5 mM) and incubated at 37 °C for 30 min in the dark. After drying in the air, the HPTLC plate was documented at white light in RT mode immediately (0 min), as well as at 5, 10, 15, 20, 30, 45, 60, 90, and 120 min, subsequently.
In HPTLC-XO inhibitory activity assay, the developed plate was dipped into a phosphate buffer solution containing xanthine and after incubation and drying was documented immediately (t = 0 min) and after 5, 10, 15, 20, 30, 45, 60, 90 and 120 min. Within this documentation interval, the plate was stored in the dark. The XO inhibitors were detected as white/yellow zones on a purple background (Figure 7).

[2] = Superoxide radical scavenging (SOD) activity (xanthine/XO/NBT); format: biochemical; conditions: for SOD Activity IC50: enzymatic xanthine/XO/NBT, 560 nm, n = 3, ± SD, N.d. = Not detected
Procedure: Half-maximal inhibitory concentration values (IC50) were calculated for superoxide radical scavenging and XO inhibitory activity. Inhibition values (%) were calculated based on absorbances (A) measured against blank solutions by using the following formula:Inhibition (%): (1 − (ASample − ASample Blank)/(AControl − AControl Blank)) × 100. (1)
SOD activity was performed as described in Ref. [27]. […] After incubation at 37 °C for 20 min the reaction was terminated by hydrochloric acid (0.6 M, 80 µL) and absorption was measured at 560 nm against a blank solution containing all reagents except XO.

[3] = DPPH• assay (spectrophotometric antioxidant activity); conditions: trolox equivalents, n = 3, average ± SD
Procedure: The same range of concentration (1–2.5 mg/mL) of DSTSs was applied for DPPH, FRAP, CUPRAC and ABTS assays. […] The antioxidant activities were expressed as mg of trolox equivalents (TE) per g of hydroalcoholic extract (TE/g hydroalcoholic extract). […] Inhibition values (%) were calculated based on absorbances (A) measured against blank solutions by using the following formula:Inhibition (%): (1 − (ASample − ASample Blank)/(AControl − AControl Blank)) × 100.
Equal volumes (20 μL) of the DSTSs, trolox standard solutions (3.125–100 μg/mL) and methanol (as a blank) were placed in separate wells of a 96-well microplate, which was followed by the addition of DPPH solution (0.1 mM, 280 μL) to each well. After incubation in the dark at room temperature for 30 min, the absorbance was measured at 530 nm [30].

xanthine oxidase (XO) [4] = target: T1, xanthine oxidase (XO) (Bos taurus, UniProt P80457); assay: Xanthine oxidase inhibitory activity (spectrophotometric); format: biochemical; conditions: for XO inhibitory activity (in words): spectrophotometric assay, at the applied concentrations (0.01–1 mg/mL)
T1 construct: purchased Sigma-Aldrich (Steinheim, Germany)
Procedure: Half-maximal inhibitory concentration values (IC50) were calculated for superoxide radical scavenging and XO inhibitory activity. Inhibition values (%) were calculated based on absorbances (A) measured against blank solutions by using the following formula:Inhibition (%): (1 − (ASample − ASample Blank)/(AControl − AControl Blank)) × 100.
Sodium phosphate buffer (50 mM, pH 7.5, 75 µL) was placed in the wells of a 96-well microplate; this was followed by the DSTSs in different concentrations (25 µL); followed by freshly prepared XO solution (0.2 U/mL in phosphate buffer solution, 25 µL); followed by water (25 µL). Incubation of the reaction mixture at 37 °C for 15 min was followed by the addition of a substrate solution (0.15 mM xanthine, 50 µL) into the mixture and incubation at 37 °C for 30 min until the reaction was terminated by the addition of hydrochloric acid (0.5 M, 50 µL). Finally, the absorbance was measured at 290 nm against a blank, containing all reagents, except the enzyme solution.

[5] = CUPRAC assay (cupric reducing antioxidant capacity); conditions: trolox equivalents, n = 3, average ± SD
Procedure: (§1) The antioxidant activities were expressed as mg of trolox equivalents (TE) per g of hydroalcoholic extract (TE/g hydroalcoholic extract).
The CUPRAC method [32] was applied. Copper (II) sulfate pentahydrate (10 mM, 85 µL), neocuproine (7.5 mM, 85 µL) ammonium acetate buffer solution (85 µL, pH 7) and water (51 µL) were inserted in each well of a 96-well microplate. Then, either 43 µL of the DSTSs or trolox standard solutions (3.125–200 μg/mL) or water as a blank were added into each well. After incubation at room temperature for 30 min, the absorbance was measured at 450 nm.

[6] = FRAP assay (ferric reducing antioxidant power); conditions: trolox equivalents, n = 3, average ± SD
Procedure: The same range of concentration (1–2.5 mg/mL) of DSTSs was applied for DPPH, FRAP, CUPRAC and ABTS assays. […] The antioxidant activities were expressed as mg of trolox equivalents (TE) per g of hydroalcoholic extract (TE/g hydroalcoholic extract).
FRAP solution was freshly prepared by mixing 1 volume of iron (III) chloride solution (2 × 10^−2 M), 1 volume of TPTZ solution (1 × 10^−2 M) and 10 volumes of sodium acetate buffer (pH 3.6) solution. FRAP solution (280 µL) and the DSTSs (20 µL) or trolox standard solutions (20 µL; 3.125–100 μg/mL) or water as a blank (20 µL) were added in separate wells of a 96-well microplate, and after 6 min the absorbance was measured at 593 nm [31].

ABTS assay = conditions: trolox equivalents, n = 3, average ± SD
Procedure: as §1
ABTS assay [33] was slightly modified and then applied. Equal volumes (20 µL) of the DSTSs, trolox standard solutions (6.25–100 μg/mL) or methanol (as a blank) were placed in separate wells of a 96-well microplate plate, and ABTS reagent (280 µL) was added. The absorbance was measured at 734 nm, after incubating the well plate for 6 min at room temperature.

[7] = HPTLC-DPPH• effect-directed analysis; conditions: 0.4 µg on plate for compounds; STS 20 mg/mL, 2 and 5 µL
Procedure: HPTLC analyses were dipped into DPPH solution (0.1%) for 3 s using a Chromatogram Immersion Device III (Camag). The plates were left to dry in the air in the dark and were documented under white light after 30 min. The compounds having antioxidant activity appeared as yellow bands on the purple background.
The image of the HPTLC plate captured at white light illumination after HPTLC-DPPH analyses was for image analyses converted to a different format using WinCATS software (Camag) and then converted to videodensitograms in fluorescence mode using VideoScan TLC/HPTLC Evaluation Software (Version 1.02.00) (Camag).

[8] = spectrophotometric, 290 nm, n = 3, ± SD, N.d. = Not detected

T1 sequence (P80457 2-1332 limits assumed): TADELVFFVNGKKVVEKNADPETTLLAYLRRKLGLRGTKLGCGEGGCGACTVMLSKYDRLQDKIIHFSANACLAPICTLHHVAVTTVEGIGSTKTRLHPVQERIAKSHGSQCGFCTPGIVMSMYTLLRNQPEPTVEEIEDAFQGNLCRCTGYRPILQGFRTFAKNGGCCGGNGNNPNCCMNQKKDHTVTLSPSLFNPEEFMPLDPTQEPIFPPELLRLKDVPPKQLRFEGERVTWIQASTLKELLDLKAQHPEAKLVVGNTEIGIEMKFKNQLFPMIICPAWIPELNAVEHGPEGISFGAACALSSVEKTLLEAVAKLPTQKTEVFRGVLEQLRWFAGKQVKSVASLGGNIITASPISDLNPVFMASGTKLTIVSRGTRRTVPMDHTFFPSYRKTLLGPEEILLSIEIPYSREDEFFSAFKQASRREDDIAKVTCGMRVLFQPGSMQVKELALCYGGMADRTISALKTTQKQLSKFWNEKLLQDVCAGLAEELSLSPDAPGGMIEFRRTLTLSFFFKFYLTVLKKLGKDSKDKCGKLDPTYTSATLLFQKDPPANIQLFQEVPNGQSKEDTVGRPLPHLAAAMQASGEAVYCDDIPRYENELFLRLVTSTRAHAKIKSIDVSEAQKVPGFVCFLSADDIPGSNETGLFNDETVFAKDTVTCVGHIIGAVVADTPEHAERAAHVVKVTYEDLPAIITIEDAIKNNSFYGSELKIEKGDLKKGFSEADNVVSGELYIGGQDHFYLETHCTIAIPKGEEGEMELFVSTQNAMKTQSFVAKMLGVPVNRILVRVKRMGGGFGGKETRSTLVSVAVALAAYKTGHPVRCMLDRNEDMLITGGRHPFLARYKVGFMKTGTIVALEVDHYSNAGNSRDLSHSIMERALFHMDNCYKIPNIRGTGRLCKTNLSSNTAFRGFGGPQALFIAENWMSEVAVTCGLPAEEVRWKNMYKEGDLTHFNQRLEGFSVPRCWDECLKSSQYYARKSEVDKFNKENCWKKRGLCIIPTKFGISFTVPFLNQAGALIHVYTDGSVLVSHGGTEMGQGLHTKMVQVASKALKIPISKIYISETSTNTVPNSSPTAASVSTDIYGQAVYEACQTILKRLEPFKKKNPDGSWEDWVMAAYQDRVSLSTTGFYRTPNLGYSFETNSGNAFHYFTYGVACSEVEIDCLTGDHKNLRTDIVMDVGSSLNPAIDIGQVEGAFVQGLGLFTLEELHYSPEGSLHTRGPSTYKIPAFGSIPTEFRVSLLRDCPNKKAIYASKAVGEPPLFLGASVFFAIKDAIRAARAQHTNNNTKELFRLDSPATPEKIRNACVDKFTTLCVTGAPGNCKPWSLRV

| SMILES | HPTLC-XO zone detection (XO inhibitors as white/yellow zones on purple background) (xanthine oxidase (XO) [1]) | SOD Activity IC50 [2] | SOD Activity IC50 ([2]; listed as allopurinol) | DPPH antioxidant activity [3] | XO inhibitory activity (in words) (xanthine oxidase (XO) [4]) | IC50 (xanthine oxidase (XO) [4]; [8]) | CUPRAC antioxidant activity [5] | FRAP antioxidant activity [6] | ABTS antioxidant activity (ABTS assay) | time at which the XO inhibition zone appeared on the HPTLC plate (xanthine oxidase (XO) [1]; 8 µg on plate) | SOD activity (in words) ([2]; spectrophotometric assay) | XO Inhibitory Activity IC50 (xanthine oxidase (XO) [4]; [8]) | HPTLC-DPPH intensity of yellow zone [7] |
| --- | --- | --- | --- | --- | --- | --- | --- | --- | --- | --- | --- | --- | --- |
| Oc1ncnc2[nH]ncc12 [Allopurinol, allopurinol, reference compound] | immediately as a white zone, which lasted for 120 min | 3.03 ± 0.10 ^a µg/mL | 3.0 µg/mL |  |  |  |  |  |  |  |  |  |  |
| O=c1c(O[C@@H]2O[C@H](CO)[C@H](O)[C@H](O)[C@H]2O[C@@H]2O[C@H](CO)[C@@H](O)[C@H](O)[C@H]2O)c(-c2ccc(O)c(O)c2)oc2cc(O)cc(O)c12 [quercetin 3-O-β-glucopyranosyl-(1→2)-β-galactopyranoside] | appeared immediately as yellow zones and lasted for 120 min | 5.09 ± 0.36 ^a µg/mL |  | 400.21 ± 11.78 ^c mg TE/g | low XO inhibitory activity | 117 µM | 560.53 ± 14.74 ^c mg TE/g | 227.30 ± 2.65 ^c mg TE/g | 242.13 ± 5.88 ^c mg TE/g |  |  |  |  |
| O=C(/C=C/c1ccc(O)c(O)c1)O[C@@H]1C[C@](O)(C(=O)O)C[C@@H](O)[C@H]1O [Chlorogenic acid, chlorogenic acid, reference compound] | appeared immediately as yellow zones and lasted for 120 min |  |  |  |  | 35.8 µM |  |  |  |  |  |  |  |
| C[C@@H]1O[C@@H](Oc2c(-c3ccc(O)cc3)oc3cc(O)cc(O)c3c2=O)[C@H](OC(=O)/C=C/c2ccc(O)cc2)[C@H](OC(=O)/C=C/c2ccc(O)cc2)[C@H]1O [Platanoside] | weakest XO inhibition activity; also recorded: weak yellow zone |  |  | 143.11 ± 1.31 ^d mg TE/g | no XO inhibitory activity |  | 213.68 ± 8.41 ^d mg TE/g | 49.06 ± 0.91 ^de mg TE/g | 173.15 ± 0.86 ^d mg TE/g | 20 min | no SOD activity |  |  |
| O=C(/C=C/c1ccc(O)c(O)c1)O[C@@H]1CC(O)(C(=O)O)C[C@@H](OC(=O)/C=C/c2ccc(O)c(O)c2)C1O (some centres unmarked) [3,5-Dicaffeoylquinic acid, 3,5-dicaffeoylquinic acid, reference compound] | appeared immediately as yellow zones and lasted for 120 min | 5.87 ± 0.32 ^a µg/mL |  | 665.53 ± 1.96 ^b mg TE/g |  |  | 760.83 ± 12.84 ^b mg TE/g | 542.36 ± 15.41 ^b mg TE/g | 701.64 ± 13.63 ^b mg TE/g |  |  | 17.47 ± 2.23 ^c µg/mL | slightly lower intensity |
| C[C@@H]1OC(Oc2c(-c3ccc(O)cc3)oc3cc(O)cc(O)c3c2=O)[C@H](O)[C@H](O)[C@H]1O (some centres unmarked) [Afzelin, kaempferol-3-O-rhamnopyranoside] | appeared immediately as yellow zones and lasted for 120 min | 20.61 ± 1.30 ^b µg/mL |  | 149.35 ± 4.28 ^d mg TE/g |  |  | 171.40 ± 8.24 ^e mg TE/g | 58.54 ± 2.37 ^d mg TE/g | 104.71 ± 0.25 ^e mg TE/g |  |  |  |  |
